{"source": "patent US12303497B2", "about": "“Anti-androgens for the treatment of metastatic castration-sensitive prostate cancer” (priority 2019, dated 2025)", "key": {"patients with CRPC": {"system": "patients with CRPC", "test": "Dedicated QT study (QTc interval)", "format": "in vivo, human", "from_the_text": "The maximum mean QTcF change from baseline was 12.4 ms (2-sided 90% upper CI. 16.0 ms)."}, "[1]": {"system": "bacterial reverse mutation (Ames) assay", "format": "cell-based"}, "CYP2C8 [2]": {"biological_target": "T1, CYP2C8 (Homo sapiens, UniProt P10632)", "T1 sequence (P10632 1-490)": "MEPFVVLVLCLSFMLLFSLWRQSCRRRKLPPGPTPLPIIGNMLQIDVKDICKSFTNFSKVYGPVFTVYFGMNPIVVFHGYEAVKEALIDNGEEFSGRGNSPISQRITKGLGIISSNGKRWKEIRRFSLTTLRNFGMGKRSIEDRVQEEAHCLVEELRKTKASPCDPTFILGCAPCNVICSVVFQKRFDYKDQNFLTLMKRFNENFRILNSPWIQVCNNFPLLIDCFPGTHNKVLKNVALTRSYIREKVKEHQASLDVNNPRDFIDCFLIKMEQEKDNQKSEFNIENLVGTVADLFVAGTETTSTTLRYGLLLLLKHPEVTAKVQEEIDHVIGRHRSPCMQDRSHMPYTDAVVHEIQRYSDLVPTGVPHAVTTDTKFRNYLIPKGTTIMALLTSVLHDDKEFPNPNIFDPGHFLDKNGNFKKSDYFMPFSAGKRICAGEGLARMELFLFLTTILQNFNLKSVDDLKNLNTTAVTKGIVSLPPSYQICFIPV", "test": "Contribution of CYP2C8 in the metabolism of apalutamide", "set-up": "endogenous in cells; host or cells: human subjects, in vivo", "details": "estimated", "from_the_text": "(§1) Metabolism is the main route of elimination of apalutamide."}, "rat bone marrow": {"system": "rat bone marrow", "test": "In vivo rat bone marrow micronucleus assay"}, "CYP3A4 [3]": {"biological_target": "T2, CYP3A4 (Homo sapiens, UniProt P08684)", "T2 sequence (P08684 whole entry)": "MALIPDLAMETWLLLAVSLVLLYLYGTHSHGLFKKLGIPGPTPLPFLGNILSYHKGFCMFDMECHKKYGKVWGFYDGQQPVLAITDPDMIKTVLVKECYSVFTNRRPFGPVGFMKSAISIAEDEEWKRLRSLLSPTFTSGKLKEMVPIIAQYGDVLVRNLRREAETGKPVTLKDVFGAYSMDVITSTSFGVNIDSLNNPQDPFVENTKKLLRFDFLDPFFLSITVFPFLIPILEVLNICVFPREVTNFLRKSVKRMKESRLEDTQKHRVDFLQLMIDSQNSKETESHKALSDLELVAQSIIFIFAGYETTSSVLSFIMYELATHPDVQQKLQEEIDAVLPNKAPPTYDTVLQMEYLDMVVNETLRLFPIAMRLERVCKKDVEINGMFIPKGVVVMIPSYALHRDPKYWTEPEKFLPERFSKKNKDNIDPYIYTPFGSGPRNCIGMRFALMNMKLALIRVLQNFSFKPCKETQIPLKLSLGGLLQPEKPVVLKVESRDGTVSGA", "test": "Contribution of CYP3A4 in the metabolism of apalutamide", "set-up": "endogenous in cells; host or cells: human subjects, in vivo", "details": "estimated", "from_the_text": "as §1"}, "[4]": {"biological_target": "organic anion transporter 3 (OAT3) (Homo sapiens, UniProt Q8TCC7)", "sequence (Q8TCC7 whole entry)": "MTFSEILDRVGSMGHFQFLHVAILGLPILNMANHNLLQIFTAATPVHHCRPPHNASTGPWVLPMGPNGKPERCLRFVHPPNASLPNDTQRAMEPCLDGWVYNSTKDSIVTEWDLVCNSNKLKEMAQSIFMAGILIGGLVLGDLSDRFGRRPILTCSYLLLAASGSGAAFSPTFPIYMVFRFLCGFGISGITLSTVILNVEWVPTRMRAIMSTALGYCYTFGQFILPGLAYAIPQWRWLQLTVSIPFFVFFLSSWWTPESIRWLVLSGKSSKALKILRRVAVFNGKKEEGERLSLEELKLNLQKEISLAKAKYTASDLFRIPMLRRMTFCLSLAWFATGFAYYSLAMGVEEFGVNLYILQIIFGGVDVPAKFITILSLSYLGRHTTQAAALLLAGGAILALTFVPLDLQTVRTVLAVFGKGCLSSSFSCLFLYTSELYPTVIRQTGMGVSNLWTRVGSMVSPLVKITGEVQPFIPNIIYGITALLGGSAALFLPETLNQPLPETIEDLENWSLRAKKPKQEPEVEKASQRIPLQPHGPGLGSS", "test": "In vitro transporter inhibition"}, "CYP2C8 [5]": {"biological_target": "T1, CYP2C8", "test": "Co-administration with gemfibrozil (strong CYP2C8 inhibitor)", "format": "in vivo", "set-up": "endogenous in cells; host or cells: human subjects, in vivo", "details": "ERLEADA 240 mg single dose with gemfibrozil"}, "OATP1B1": {"biological_target": "OATP1B1 (Homo sapiens, UniProt Q9Y6L6)", "sequence (Q9Y6L6 whole entry)": "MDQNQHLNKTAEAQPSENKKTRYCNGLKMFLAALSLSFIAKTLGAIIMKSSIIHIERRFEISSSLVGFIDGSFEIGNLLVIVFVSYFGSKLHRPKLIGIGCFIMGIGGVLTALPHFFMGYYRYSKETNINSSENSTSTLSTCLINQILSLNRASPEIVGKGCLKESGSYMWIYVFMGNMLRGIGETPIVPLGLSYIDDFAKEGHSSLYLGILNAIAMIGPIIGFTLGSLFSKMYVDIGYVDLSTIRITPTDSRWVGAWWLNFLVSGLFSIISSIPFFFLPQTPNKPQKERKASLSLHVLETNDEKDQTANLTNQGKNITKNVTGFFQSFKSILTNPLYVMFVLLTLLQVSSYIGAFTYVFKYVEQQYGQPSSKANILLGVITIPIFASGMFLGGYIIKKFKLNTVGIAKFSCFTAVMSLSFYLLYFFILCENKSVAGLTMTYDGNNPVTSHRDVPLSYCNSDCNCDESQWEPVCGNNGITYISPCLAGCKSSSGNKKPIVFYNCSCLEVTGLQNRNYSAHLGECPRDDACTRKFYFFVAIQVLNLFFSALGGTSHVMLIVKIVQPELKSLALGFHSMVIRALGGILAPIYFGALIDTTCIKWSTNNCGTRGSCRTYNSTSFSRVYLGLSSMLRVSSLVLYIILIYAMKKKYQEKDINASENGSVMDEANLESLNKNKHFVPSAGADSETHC", "test": "In vitro transporter substrate study"}, "CYP3A4 [6]": {"biological_target": "T2, CYP3A4", "test": "Co-administration with itraconazole (strong CYP3A4 inhibitor)", "format": "in vivo", "set-up": "endogenous in cells; host or cells: human subjects, in vivo", "details": "ERLEADA 240 mg single dose with itraconazole"}, "[7]": {"test": "Solubility in aqueous media", "format": "physicochemical", "details": "aqueous media over a wide range of pH values", "from_the_text": "The chemical name is (4-[7-(6-Cyano-5-trifluoromethylpyridin-3-yl)-8-oxo-6-thioxo-5,7-diazaspiro[3.4]oct-5-yl]-2-fluoro-N-methylbenzamide). Apalutamide is a white to slightly yellow powder."}, "rat": {"system": "rat", "test": "In vivo rat Comet assay"}, "CYP2C8 [8]": {"biological_target": "T1, CYP2C8", "test": "In vitro CYP inhibition"}, "[9]": {"biological_target": "organic anion transporter 1 (Homo sapiens, UniProt Q4U2R8)", "sequence (Q4U2R8 whole entry)": "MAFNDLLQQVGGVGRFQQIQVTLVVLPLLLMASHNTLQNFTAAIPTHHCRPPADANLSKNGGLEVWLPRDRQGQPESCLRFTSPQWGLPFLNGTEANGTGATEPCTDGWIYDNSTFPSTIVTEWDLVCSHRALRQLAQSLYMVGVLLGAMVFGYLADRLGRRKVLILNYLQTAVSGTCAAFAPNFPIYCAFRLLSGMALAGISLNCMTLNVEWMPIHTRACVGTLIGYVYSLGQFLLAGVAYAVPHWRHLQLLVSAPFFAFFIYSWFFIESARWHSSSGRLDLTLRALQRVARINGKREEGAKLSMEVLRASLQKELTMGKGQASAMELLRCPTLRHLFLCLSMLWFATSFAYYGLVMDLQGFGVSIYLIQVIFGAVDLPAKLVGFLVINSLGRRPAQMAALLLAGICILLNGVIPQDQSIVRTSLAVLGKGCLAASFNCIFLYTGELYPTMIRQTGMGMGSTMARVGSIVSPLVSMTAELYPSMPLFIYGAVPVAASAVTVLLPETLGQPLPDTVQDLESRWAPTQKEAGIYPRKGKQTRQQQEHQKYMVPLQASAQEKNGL", "test": "In vitro transporter inhibition"}, "[10]": {"system": "multidrug and toxin extrusions (MATEs)", "test": "In vitro transporter inhibition", "format": "in vitro ADME"}, "[11]": {"test": "Single oral administration of radiolabeled apalutamide (AUC share, excretion)", "format": "in vivo"}, "male rats": {"system": "male rats", "test": "Repeat-dose toxicity study in male rats (up to 26 weeks)", "format": "in vivo, rat"}, "CYP2C19": {"biological_target": "CYP2C19 (Homo sapiens, UniProt P33261)", "sequence (P33261 whole entry)": "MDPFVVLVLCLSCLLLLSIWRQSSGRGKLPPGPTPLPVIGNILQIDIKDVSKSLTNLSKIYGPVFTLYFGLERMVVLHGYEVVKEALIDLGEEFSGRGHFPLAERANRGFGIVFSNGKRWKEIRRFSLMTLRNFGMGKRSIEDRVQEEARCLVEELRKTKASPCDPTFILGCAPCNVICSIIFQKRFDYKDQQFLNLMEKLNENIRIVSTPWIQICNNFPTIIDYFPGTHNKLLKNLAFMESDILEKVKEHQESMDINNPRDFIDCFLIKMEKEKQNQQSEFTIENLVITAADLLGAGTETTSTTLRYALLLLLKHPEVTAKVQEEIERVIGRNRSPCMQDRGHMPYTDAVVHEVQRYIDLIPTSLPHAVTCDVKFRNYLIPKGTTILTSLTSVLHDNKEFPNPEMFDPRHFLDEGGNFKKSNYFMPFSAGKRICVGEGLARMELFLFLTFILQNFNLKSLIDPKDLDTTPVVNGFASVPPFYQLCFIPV", "test": "In vitro CYP inhibition"}, "OATP1B3": {"biological_target": "OATP1B3 (Homo sapiens, UniProt Q9NPD5)", "sequence (Q9NPD5 whole entry)": "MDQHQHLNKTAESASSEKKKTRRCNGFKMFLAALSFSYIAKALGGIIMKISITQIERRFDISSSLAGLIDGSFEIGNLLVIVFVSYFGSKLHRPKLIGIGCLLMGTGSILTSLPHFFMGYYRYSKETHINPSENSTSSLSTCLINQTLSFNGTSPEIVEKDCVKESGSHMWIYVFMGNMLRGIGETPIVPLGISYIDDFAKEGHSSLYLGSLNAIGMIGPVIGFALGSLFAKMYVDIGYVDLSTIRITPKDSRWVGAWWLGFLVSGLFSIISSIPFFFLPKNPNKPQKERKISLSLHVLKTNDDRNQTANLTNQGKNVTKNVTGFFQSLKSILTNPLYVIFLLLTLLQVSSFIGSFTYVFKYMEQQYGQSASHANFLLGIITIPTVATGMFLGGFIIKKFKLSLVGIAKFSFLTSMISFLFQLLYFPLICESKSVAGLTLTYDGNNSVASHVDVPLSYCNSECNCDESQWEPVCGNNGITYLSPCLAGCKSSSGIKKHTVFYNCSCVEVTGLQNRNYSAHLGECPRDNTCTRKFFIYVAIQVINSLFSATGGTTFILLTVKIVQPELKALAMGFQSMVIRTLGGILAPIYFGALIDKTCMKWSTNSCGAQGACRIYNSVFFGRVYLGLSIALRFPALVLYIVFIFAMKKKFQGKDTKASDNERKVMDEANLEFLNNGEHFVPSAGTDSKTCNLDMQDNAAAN", "test": "In vitro transporter substrate study"}, "[12]": {"system": "non-castrate hormone-sensitive and bicalutamide-resistant human prostate cancer xenograft models", "details": "Clegg et al. Cancer Res. 2012; cited from earlier work"}, "[13]": {"details": "up to 70 days after single oral radiolabeled dose"}}, "data": [{"smiles": "CNC(=O)c1ccc(N2C(=S)N(c3cnc(C#N)c(C(F)(F)F)c3)C(=O)C23CCC3)cc1F", "note": "[Apalutamide, 4-[7-(6-cyano-5-trifluoromethylpyridin-3-yl)-8-oxo-6-thioxo-5,7-diazaspiro[3.4]oct-5-yl]-2-fluoro-N-methylbenzamide]", "values": [{"measurement": "Maximum mean QTcF change from baseline", "setting": "patients with CRPC; apalutamide 240 mg once daily, 45 patients with CRPC, 2-sided 90% upper CI 16.0 ms", "result": 12.4, "unit": "ms"}, {"measurement": "Exposure-QT analysis", "setting": "patients with CRPC; in vivo", "result": "concentration-dependent increase in QTcF"}, {"measurement": "Mutagenicity", "setting": "[1]", "result": "did not induce mutations"}, {"measurement": "Contribution of CYP2C8 in the metabolism of apalutamide", "setting": "CYP2C8 [2]; at steady-state", "result": 40, "unit": "%"}, {"measurement": "Contribution of CYP2C8 in the metabolism of apalutamide", "setting": "CYP2C8 [2]; following single dose", "result": 58, "unit": "%"}, {"measurement": "Genotoxicity", "setting": "rat bone marrow", "result": "not genotoxic"}, {"measurement": "Contribution of CYP3A4 in the metabolism of apalutamide", "setting": "CYP3A4 [3]; at steady-state", "result": 37, "unit": "%"}, {"measurement": "Contribution of CYP3A4 in the metabolism of apalutamide", "setting": "CYP3A4 [3]; following single dose", "result": 13, "unit": "%"}, {"measurement": "Inhibition of OAT3", "setting": "[4]", "result": "inhibit"}, {"measurement": "Apalutamide AUC increase", "setting": "CYP2C8 [5]", "result": 68, "unit": "%"}, {"measurement": "Apalutamide Cmax decrease", "setting": "CYP2C8 [5]", "result": 21, "unit": "%"}, {"measurement": "Substrate for OATP1B1", "setting": "OATP1B1", "result": "not"}, {"measurement": "Apalutamide AUC change", "setting": "CYP3A4 [6]", "result": "similar"}, {"measurement": "Apalutamide Cmax decrease", "setting": "CYP3A4 [6]", "result": 22, "unit": "%"}, {"measurement": "Solubility", "setting": "[7]", "result": "practically insoluble"}, {"measurement": "Genotoxicity", "setting": "rat", "result": "not genotoxic"}, {"measurement": "CYP2C8 inhibition", "setting": "CYP2C8 [8]", "result": "moderate inhibitors"}, {"measurement": "Inhibition of organic anion transporter 1", "setting": "[9]", "result": "do not inhibit"}, {"measurement": "Inhibition of MATEs", "setting": "[10]", "result": "inhibit"}, {"measurement": "Share of the total AUC", "setting": "[11]; single oral radiolabeled apalutamide 240 mg", "result": 45, "unit": "%"}, {"measurement": "Dose recovered in feces", "setting": "[11]; [13]", "result": 24, "unit": "%"}, {"measurement": "Dose recovered in feces as this compound", "setting": "[11]; [13]", "result": 1.5, "unit": "%"}, {"measurement": "Dose recovered in urine", "setting": "[11]; [13]", "result": 65, "unit": "%"}, {"measurement": "Dose recovered in urine as this compound", "setting": "[11]; [13]", "result": 1.2, "unit": "%"}, {"measurement": "Dose at which atrophy of prostate gland and seminal vesicles, aspermia/hypospermia, tubular degeneration and/or interstitial cell hyperplasia or hypertrophy were observed", "setting": "male rats", "result": "≥ 25", "unit": "mg/kg/day"}, {"measurement": "CYP2C19 inhibition", "setting": "CYP2C19", "result": "weak inhibitors"}, {"measurement": "Substrate for OATP1B3", "setting": "OATP1B3", "result": "not"}, {"measurement": "Tumor response", "setting": "[12]", "result": "partial or complete tumor regression"}]}]}
